Legend:
Assay in all cases: relative viability (nuclei count vs DMSO), 5 days (fraction); higher = more cells survive
BGJ398 + Olaparib = compound: CCN1CCN(c2ccc(Nc3cc(N(C)C(=O)Nc4c(Cl)c(OC)cc(OC)c4Cl)ncn3)cc2)CC1 [BGJ398] + O=C(c1cc(Cc2n[nH]c(=O)c3ccccc23)ccc1F)N1CCN(C(=O)C2CC2)CC1 [Olaparib] (partner 8 µM)
Procedure, shortened: (§1)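 Lung cancer cell lines in 1536-well plates were dosed by pin tool the day after seeding, either with one drug alone or with a fixed anchor-drug dose plus five library-drug doses (not always all listed) in √10 steps. After 5 days, cells were fixed and their nuclei stained in one step (final 0.05% Triton X-100, 1% formaldehyde, 1 ug/ml Hoechst), then counted on 4× images. Relative viability is the nuclei count in treated wells divided by that in vehicle wells. Values are medians of duplicate plates.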

BGJ398 + Crizotinib = compound: CCN1CCN(c2ccc(Nc3cc(N(C)C(=O)Nc4c(Cl)c(OC)cc(OC)c4Cl)ncn3)cc2)CC1 [BGJ398] + C[C@@H](Oc1cc(-c2cnn(C3CCNCC3)c2)cnc1N)c1c(Cl)ccc(F)c1Cl [Crizotinib] (partner 1 µM)
Procedure, shortened: as §1

[1] = compound: C1=CC2=NC=CN=C2C=C1/C=C/3\C(=O)NC(=O)S3 + C[C@]1(O)C[C@@H](c2nc(-c3ccc4ccc(-c5ccccc5)nc4c3)c3c(N)nccn32)C1 [Linsitinib] (partner 1 µM)
Procedure, shortened: as §1

BGJ398 + Pemetrexed = compound: CCN1CCN(c2ccc(Nc3cc(N(C)C(=O)Nc4c(Cl)c(OC)cc(OC)c4Cl)ncn3)cc2)CC1 [BGJ398] + Nc1nc2[nH]cc(CCc3ccc(C(=O)N[C@@H](CCC(=O)O)C(=O)O)cc3)c2c(=O)[nH]1 [Pemetrexed] (partner 0.2 µM)
Procedure, shortened: as §1

Cell Line	relative viability (BGJ398 + Olaparib; first compound 0.01 µM)	relative viability (BGJ398 + Olaparib; first compound 0.03162 µM)	relative viability (BGJ398 + Olaparib; first compound 0.1 µM)	relative viability (BGJ398 + Olaparib; first compound 0.3162 µM)	relative viability (BGJ398 + Olaparib; first compound 1 µM)	relative viability (BGJ398 + Crizotinib; first compound 0.01 µM)	relative viability (BGJ398 + Crizotinib; first compound 0.03162 µM)	relative viability (BGJ398 + Crizotinib; first compound 0.1 µM)	relative viability (BGJ398 + Crizotinib; first compound 0.3162 µM)	relative viability (BGJ398 + Crizotinib; first compound 1 µM)	relative viability ([1]; first compound 0.02 µM)	relative viability ([1]; first compound 0.06325 µM)	relative viability ([1]; first compound 0.2 µM)	relative viability ([1]; first compound 0.6325 µM)	relative viability ([1]; first compound 2 µM)	relative viability (BGJ398 + Pemetrexed; first compound 0.01 µM)	relative viability (BGJ398 + Pemetrexed; first compound 0.03162 µM)	relative viability (BGJ398 + Pemetrexed; first compound 0.1 µM)	relative viability (BGJ398 + Pemetrexed; first compound 0.3162 µM)	relative viability (BGJ398 + Pemetrexed; first compound 1 µM)
NCI-H1993	1.02	1.08	1.01	1.02	0.997	0.866	0.794	0.912	0.959	0.922	0.712	0.797	0.751	0.795	0.713	0.559	0.543	0.575	0.572	0.549
NCI-H520	0.265	0.355	0.314	0.202	0.238	0.829	0.72	0.395	0.456	0.281	0.931	1.15	1.11	0.969	1.03	0.691	0.532	0.531	0.341	0.311
NCI-H647	0.51	0.643	0.694	0.521	0.603	1.03	1.01	1.16	1.06	1.03	1.13	1.51	1.41	1.1	1.08	0.179	0.16	0.19	0.201	0.185
NCI-H1792	0.494	0.351	0.281	0.607	0.282	0.939	0.999	1.08	0.99	0.93	0.519	0.309	0.557	0.456	0.593	0.723	0.791	0.831	0.743	0.749
SK-LU-1	0.461	0.579	0.539	0.348	0.329	0.905	0.906	1.01	0.926	0.787	1.2	1.22	1.15	1.06	0.989	0.866	1	1.05	0.936	1.07
NCI-H2009	0.614	0.759	0.697	0.718	0.682	1	1.04	1.02	1.04	1.02	1.16	1.26	1.26	1.18	1.2	1.02	1.04	1.04	1.11	1.09
LOU-NH91	0.884	0.707	0.92	0.699	0.927	0.724	0.506	0.688	0.569	0.728	0.982	1.01	0.928	0.954	0.97	0.375	0.407	0.408	0.376	0.381
NCI-H2405	0.818	0.954	0.926	0.923	0.768	0.838	0.906	0.911	0.919	0.849	0.96	1.08	1.03	0.959	0.915	1.05	1.15	1.09	1.3	1.02
LCLC-97TM1	0.294	0.393	0.443	0.508	0.277	0.34	0.335	0.317	0.463	0.267	0.23	0.188	0.203	0.162	0.145	0.172	0.236	0.161	0.174	0.162
NCI-H596	0.674	0.648	0.645	0.626	0.667	0.935	0.843	0.883	0.944	0.794	1.01	0.994	1.11	0.975	1.07	0.424	0.476	0.439	0.477	0.431
H3255	0.527	0.537	0.604	0.551	0.55	0.798	–	0.877	0.634	0.829	0.81	0.968	0.967	0.897	0.96	0.608	0.434	0.604	0.509	0.629
SK-MES-1	0.709	0.754	0.786	0.659	0.679	0.944	1.05	1	0.942	0.967	1.04	1.25	1.09	0.95	1.04	0.84	0.999	0.888	1.02	0.898
NCI-H1437	0.687	0.629	0.587	0.607	0.666	0.91	0.924	0.941	1.02	0.877	0.899	1.2	1.05	0.979	0.969	0.322	0.309	0.296	0.321	0.298
LU99A	0.266	0.26	0.281	0.276	0.292	0.532	0.49	0.595	0.525	0.479	0.597	0.559	0.561	0.5	0.475	0.176	0.182	0.169	0.224	0.204
HCC-827	0.468	–	0.583	0.482	0.628	0.964	–	0.92	0.973	0.938	0.944	0.928	1	0.935	0.884	0.254	–	0.277	0.184	0.272
LK-2	0.624	0.532	0.374	0.186	0.227	0.206	0.227	0.214	0.224	0.231	0.68	0.523	0.69	0.644	0.516	0.213	0.194	0.114	0.157	0.12

Reference: the supplement of paper PMC10307832
